Experimental data: patent publication US9827219B2, “Compositions and methods for lowering levels of high-sensitivity C-reactive protein (HS-CRP) in a subject” (priority 2012, dated 2017)

Tests used:
Format in all cases: in vivo, human
[1] = tested on: LDL-C; experiment: LDL-C in patients with diabetes mellitus-2 (Example 2); conditions: 4 g/day; for Median placebo-adjusted percent change in LDL-C from baseline to study end: 12 weeks, on statin
Source text: (§1) Parameters (a)-(y) can be measured in accordance with any clinically acceptable methodology. For example, triglycerides, total cholesterol, HDL-C and fasting blood sugar can be sample from serum and analyzed using standard photometry techniques. VLDL-TG, LDL-C and VLDL-C can be calculated or determined using serum lipoprotein fractionation by preparative ultracentrifugation and subsequent quantitative analysis by refractometry or by analytic ultracentrifugal methodology. Apo A1, Apo B and hsCRP can be determined from serum using standard nephelometry techniques. Lipoprotein (a) can be determined from serum using standard turbidimetric immunoassay techniques. LDL particle number and particle size can be determined using nuclear magnetic resonance (NMR) spectrometry. Remnants lipoproteins and LDL-phospholipase A2 can be determined from EDTA plasma or serum and serum, respectively, using enzymatic immunoseparation techniques. Oxidized LDL, intercellular adhesion molecule-1 and interleukin-2 levels can be determined from serum using standard enzyme immunoassay techniques. These techniques are described in detail in standard textbooks, for example Tietz Fundamentals of Clinical Chemistry, 6th Ed. (Burtis, Ashwood and Borter Eds.), WB Saunders Company.
(§2) The effect of >96% E-EPA on lipid and inflammatory parameters was evaluated in patients with fasting triglyceride levels ≧150 mg/dl and <499 mg/dl on concomitant statin therapy. Patients with diabetes mellitus-2 were randomized and treated with either 2 g/day >96% E-EPA, 4 g/day >96%, or placebo for twelve weeks. At the end of the treatment period, several diabetes efficacy endpoints were evaluated including, TG, LDL-C, non-HDL-C, VLDL-C, Lp-PLA2, Apo B, TC, HDL-C, VLDL-TG, hs-CRP, oxLDL, and RLP-C.

[2] = tested on: Apo B; experiment: Apo B in patients with diabetes mellitus-2 (Example 2); conditions: 4 g/day, 12 weeks, on statin
Source text: as §1, with “(Burtis, Ashwood and Borter Eds.), WB Saunders Company.” left out
The effect of >96% E-EPA on lipid and inflammatory parameters was evaluated in patients with fasting triglyceride levels ≧150 mg/dl and <499 mg/dl on concomitant statin therapy. […]

[3] = tested on: FPG, HbA1c, insulin and HOMA-IR; experiment: Diabetes parameters (FPG, HbA1c, insulin, HOMA-IR) in patients with diabetes mellitus-2 (Example 2); conditions: 4 g/day
Method: as §2

[4] = tested on: IL-6; experiment: MARINE study, IL-6; conditions: MARINE ITT, week 12
Method: A multi-center, placebo-controlled randomized, double-blind, 12-week study with an open-label extension was performed to evaluate the efficacy and safety of AMR101 in patients with fasting triglyceride levels ≧500 mg/dL. The primary objective of the study was to determine the efficacy of AMR101 2 g daily and 4 g daily, compared to placebo, in lowering fasting TG levels in patients with fasting TG levels ≧500 mg/dL and ≦1500 mg/dL (≧5.65 mmol/L and ≦16.94 mmol/L).
The population for this study was men and women (women of childbearing potential will need to be on contraception or practice abstinence)>18 years of age with a body mass index ≦45 kg/m^2 who were not on lipid-altering therapy or were currently on lipid-altering therapy. Patients currently on statin therapy (with or without ezetimibe) were evaluated by the investigator as to whether this therapy can be safely discontinued at screening, or if it should be continued. If statin therapy (with or without ezetimibe) was to be continued, dose(s) must have been stable for ≧4 weeks prior to randomization. Patients taking non-statin, lipid-altering medications (niacin >200 mg/day, fibrates, fish oil, other products containing omega-3 fatty acids, or other herbal products or dietary supplements with potential lipid-altering effects), either alone or in combination with statin therapy (with or without ezetimibe), must have been able to safely discontinue non-statin, lipid-altering therapy at screening.
Approximately 240 patients were randomized at approximately 50 centers in North America, South America, Central America, Europe, India, and South Africa. The study was a 58- to 60-week, Phase 3, multi-center study consisting of 3 study periods: (1) A 6- to 8-week screening period that included a diet and lifestyle stabilization and washout period and a TG qualifying period; (2) A 12-week, double-blind, randomized, placebo-controlled treatment period; and (3) A 40-week, open-label, extension period.
After confirmation of qualifying fasting TG values, eligible patients entered a 12-week, randomized, double-blind treatment period. At Visit 4 (Week 0), patients were randomly assigned to 1 of the following treatment groups: • AMR101 2 g daily, • AMR101 4 g daily, or • Placebo.
Eligible patients were randomly assigned at Visit 4 (Week 0) to receive orally AMR101 2 g daily, AMR101 4 g daily, or placebo for the 12-week double-blind treatment period. AMR101 was provided in 1 g liquid-filled, oblong, gelatin capsules. The matching placebo capsule was filled with light liquid paraffin and contained 0 g of AMR101. During the double-blind treatment period, patients took 2 capsules (AMR101 or matching placebo) in the morning and 2 in the evening for a total of 4 capsules per day. […]

[5] = well-controlled diabetes (HbA1c < median of 6.8%)

CC/C=C\C/C=C\C/C=C\C/C=C\C/C=C\CCCC(=O)OCC [AMR101, all-cis eicosa-5,8,11,14,17-pentaenoic acid ethyl ester]
Median placebo-adjusted percent change in LDL-C from baseline to study end ([1]; less-controlled diabetes (HbA1c ≧ median of 6.8%)): −5.7%
Median placebo-adjusted percent change in LDL-C from baseline to study end ([1]; total diabetes): −6.3%
Median placebo-adjusted percent change in LDL-C from baseline to study end [1, 5]: −6.6%
LDL-C levels between well-controlled, less-controlled and all diabetic subjects ([1]; twelve weeks): no significant decrease in LDL-C levels
Median placebo-adjusted percent change in Apo B from baseline to study end ([2]; total diabetes): −9.5%
Median placebo-adjusted percent change in Apo B from baseline to study end [2, 5]: −6.1%
Glycemic control ([3]; twelve weeks): did not worsen glycemic control
Changes in diabetes parameters including FPG, HbA1c, insulin and HOMA-IR ([3]; well-controlled, less-controlled and all diabetic subjects, FIG. 4): no statistically significant changes
IL-6 change from baseline (median) ([4]; 2 g/day): 3.4%
IL-6 end-of-treatment value (median) ([4]; 2 g/day): 3.0 pg/mL
IL-6 change from baseline (median) ([4]; 4 g/day): 0.3%
IL-6 end-of-treatment value (median) ([4]; 4 g/day): 2.4 pg/mL
